Patent US20140335132A1, “BINDING DRUGS WITH NANOCRYSTALLINE CELLULOSE (NCC)” (priority 2010, published 2014)
Counter-ions that a name gives are not always drawn.

How the values were obtained:
[1] = Binding of hydrophilic drugs to NCC; assay type: physicochemical; conditions: for final mass of drug bound to NCC for the release studies: 2.5 mg NCC, distilled water then 10 mM NaCl, DOX solution 325 μg/ml, TET solution 1000 μg/ml; for binding efficiency / maximum mass of drug bound to NCC: 2 mg NCC
Protocol: NCC Drug Binding Procedure: Doxorubicin hydrochloride (DOX) or tetracycline hydrochloride (TET), were dissolved in either 10 mM phosphate buffered saline (PBS) at pH 7.4, or dH2O with increasing drug concentrations ([drugadded]). Drug solutions (1.5 ml) were added to 0.5 ml of NCC suspension in a 2 ml microcentrifuge tube and incubated at 37° C. with tumbling shaking at 8 rpm for 30 minutes. Suspensions containing PBS or NaCl produced flocculated NCC/drug suspensions, which were centrifuged at 18000×g for 10 minutes to pellet the NCC and bound drug. The concentration of unbound drug in the supernatant ([drugunbound]) was assayed using a Varian 50 Bio UV Vis spectrophotometer (Varian, Inc., Mississauga, Ont.) using wavelengths of 482 nm and 364 nm for DOX and TET, respectively. The concentration of drug bound to the NCC ([drugbound]) was calculated using the following equation:
[drugbound]=[drugadded]−[drugunbound] (1)
In this case, the NCC/drug suspensions were transferred to dialysis bags with a molecular weight cut off of 10000 Da (Spectrum Laboratories, Inc., Rancho Dominguez, Calif.) and dialysed against distilled water overnight in the dark at 4° C. The concentration of unbound drug in the dialysate was determined by UV Vis spectroscopy, allowing for the calculation of the amount of drug bound to the NCC according to equation (1).

[2] = In vitro release of drugs from NCC in PBS; assay type: physicochemical; conditions: 10 mM PBS, 37° C.
Protocol: (§1) Drug Release Procedure: DOX was bound to NCC for release studies by incubating a solution of 325 μg/ml of DOX in distilled water with a suspension containing 2.5 mg of NCC. In order to flocculate the NCC and allow for separation of the NCC/DOX nanocomplexes, NaCl was added to a final concentration of 10 mM. The suspension was centrifuged at 18000×g for 10 minutes to pellet the NCC/DOX and the drug binding was determined by UV Vis spectroscopy as described above. […] NCC/drug nanocomplexes with DTX, PTX and ETOP were prepared as described for the drug binding studies. The concentration of DTX and PTX that was incubated with the NCC suspension was 200 μg/ml and the concentration of ETOP was 100 μg/ml. […] The drug loaded NCC samples were resuspended in 1 ml of PBS followed by incubation at 37° C. with tumbling at 8 rpm. At predetermined times the suspensions were centrifuged at 18000×g for 10 minutes and the supernatant was removed for drug quantitation by UV Vis for DOX and TET or HPLC for DTX, PTX and ETOP, as previously described. At each sampling time point, fresh PBS was added to the tubes and the NCC/drug nanocomplexes were resuspended.

[3] = Binding of hydrophobic drugs to NCC/CTAB nanocomplexes; assay type: physicochemical; conditions: for saturation of binding / binding efficiency to NCC/CTAB nanocomplexes: 12.9 mM CTAB, 2.5 mg NCC, 10 mM NaCl; for binding efficiency to NCC/CTAB nanocomplexes: 25° C., up to 100 μg of drug added; for final mass of drug bound to NCC/CTAB for the release studies: DTX and PTX incubated at 200 μg/ml, ETOP at 100 μg/ml
Protocol: In order to solubilize the hydrophobic drugs paclitaxel (PTX), docetaxel (DTX) and etoposide (ETOP), the surface of the NCC was first modified with CTAB. This was achieved by incubating increasing amounts of CTAB with 2.5 mg of NCC so the final CTAB concentration varied from 0 mM to 12.9 mM. An aliquot of 100 mM NaCl was added, resulting in a final NaCl concentration of 10 mM, which facilitated flocculation and subsequent separation of the NCC/CTAB nanocomplexes by centrifugation as described above. The NCC/CTAB was incubated with stock solutions of the drugs with increasing concentrations. Since these drugs are characterized by low aqueous solubility, they were solubilized in a minimal amount of either DMSO or diblock copolymer in 10 mM NaCl as previously described. The drug/NCC/CTAB suspensions were incubated at 25° C. with tumbling at 8 rpm for 30 minutes then centrifuged at 18000×g for 10 minutes to pellet the NCC/CTAB and bound drug. The amount of unbound drug in the supernatant was determined by HPLC using a Waters HPLC system with Millennium software and UV Vis detection. Separation was achieved using a Novapak™ C18 column with 20 μl injections and a mobile phase flow rate of 1 ml/min. The DTX and PTX mobile phase consisted of 58% acetonitrile, 37% dH2O and 5% methanol with detection at 232 nm. The mobile phase for ETOP was 27% acetonitrile, 1% acetic acid and 72% dH2O and detection was at 286 nm. Calibration curves were prepared for all drugs and were linear in the desired concentration range. The amount of drug bound to the NCC/CTAB was determined using equation (1).

[4] = In vitro release of drugs from NCC/CTAB nanocomplexes in PBS; assay type: physicochemical; conditions: 12.9 mM CTAB, 10 mM PBS, 37° C.
Protocol: as §1

[5] = Retention of fluorescein bound to NCC/CTAB in aqueous media; assay type: physicochemical; conditions: upon resuspension or dilution in aqueous media
[6] = tested on: KU-7 cells; assay: Cell binding and uptake of NCC/CTAB/fluorescein (fluorescence, confocal microscopy); assay type: cell-based
Protocol: FIGS. 10A, B, C and D are confocal micrographs of KU-7 cells incubated for 2 hours with NCC/CTAB/fluoroscein system with a fluorescein concentration of 0.25 mg/ml. (A) White light image of KU-7 cells. (B) Staining of the nuclei with DAPI. (C) Fluorescein in the cytoplasm. (D) An overlay of images B and C.

[7] = dispersion medium PBS 10 mM, pH 7.4
[8] = dispersion medium distilled water

Row | Compound | saturation of binding [3] | binding efficiency to NCC/CTAB nanocomplexes [3] | final mass of drug bound to NCC/CTAB for the release studies [3] [µg] | bound drug released within the first hour [4] | total bound drug released in two days [4] [%] | final mass of drug bound to NCC for the release studies [1] [µg] | binding efficiency [1, 7] [%] | maximum mass of drug bound to NCC [1, 7] [µg] | binding efficiency [1, 8] [%] | maximum mass of drug bound to NCC [1, 8] [µg] | bound drug released in four hours [2] | bound drug released by one day (plateau) [2] [%] | further results
1 | COc1cccc2c1C(=O)c1c(O)c3c(c(O)c1C2=O)C[C@@](O)(C(=O)CO)C[C@@H]3O[C@H]1C[C@H](N)[C@H](O)[C@H](C)O1 [DOX, Doxorubicin hydrochloride] |  |  |  |  |  | 212 ± 3.5 | 65 | 122 | 83 | 1667 | ~85% | 87 | 
2 | CC(=O)O[C@@]12CO[C@@H]1C[C@H](O)[C@@]1(C)C(=O)[C@H](O)C3=C(C)[C@@H](OC(=O)[C@H](O)[C@@H](NC(=O)OC(C)(C)C)c4ccccc4)C[C@@](O)([C@@H](OC(=O)c4ccccc4)[C@H]21)C3(C)C [DTX, docetaxel] | approximately 200 μg | approximately 90% | 184 ± 4.8 | Approximately 26% | 59 |  |  |  |  |  |  |  | 
3 | CN(C)[C@@H]1C(O)=C(C(N)=O)C(=O)[C@@]2(O)C(O)=C3C(=O)c4c(O)cccc4[C@@](C)(O)[C@H]3C[C@@H]12 [TET, tetracycline hydrochloride] |  |  |  |  |  | 187 ± 2.0 | 25 | 251 | 48 | 959 | approximately 90% | 93 | drug loading ([1]; almost 500 μg on 2 mg of NCC): 20 % w/w; mass of drug bound to NCC ([1]; bound to 2 mg of NCC (FIG. 2)): ~500 µg
4 | O=C1OC2(c3ccc(O)cc3Oc3cc(O)ccc32)c2ccccc21 [fluorescein] |  |  |  |  |  |  |  |  |  |  |  |  | fluorescein remaining bound to NCC/CTAB [5]: More than 95%; time by which cellular uptake of fluorescein reached a maximum [6]: ≤ 2 h

The next lines start with results.

Row | saturation of binding [3] | binding efficiency to NCC/CTAB nanocomplexes [3] | final mass of drug bound to NCC/CTAB for the release studies [3] [µg] | bound drug released within the first hour [4] | total bound drug released in two days [4] [%] | Compound | final mass of drug bound to NCC for the release studies [1] [µg] | binding efficiency [1, 7] [%] | maximum mass of drug bound to NCC [1, 7] [µg] | binding efficiency [1, 8] [%] | maximum mass of drug bound to NCC [1, 8] [µg] | bound drug released in four hours [2] | bound drug released by one day (plateau) [2] [%] | further results
5 |  | 48% | 63 ± 0.1 |  |  | COc1cc([C@@H]2c3cc4c(cc3[C@@H](O[C@@H]3O[C@@H]5CO[C@@H](C)O[C@H]5[C@H](O)[C@H]3O)[C@H]3COC(=O)[C@H]23)OCO4)cc(OC)c1O [ETOP, etoposide] |  |  |  |  |  |  |  | maximum mass of drug bound to NCC/CTAB ([3]; 100 μg of drug added): 48 µg; total drug released over four days ([4]; four days): 75%
6 | approximately 200 μg | approximately 90% | 149 ± 4.8 | 20% | 44 | CC(=O)O[C@H]1C(=O)[C@@]2(C)[C@H]([C@H](OC(=O)c3ccccc3)[C@]3(O)C[C@H](OC(=O)[C@H](O)[C@@H](NC(=O)c4ccccc4)c4ccccc4)C(C)=C1C3(C)C)[C@]1(OC(C)=O)CO[C@@H]1C[C@@H]2O [PTX, paclitaxel] |  |  |  |  |  |  |  | 
